According to patent US12005034B2 (ALGOTHERAPEUTIX, priority 2017, dated 2024):

How the values were obtained:
TRPV1 = biological target: T1, TRPV1 (Mus musculus, UniProt Q704Y3); assay: Calcium mobilization in DRG neurons with TRPV1 antagonist or agonist; assay type: cell-based
T1 construct: calcium ion mobilization was investigated in primary cultures of mouse DRG neurons; endogenous in cells; host or cells: primary mouse DRG neurons
Description: (§1) For calcium mobilization measurements, 10 DRG cultures (two mice per culture) were washed with Hanks Balanced Salt Solution (HBSS, Thermo Fisher Scientific, Massachusetts, USA), and incubated in HBSS containing 1 μg/ml papain (Sigma Aldrich, Missouri, USA) and L-cysteine (pH 7.4, Sigma Aldrich) for 10 minutes at 37° C. […] Neurons were then mechanically dissociated. […] DRG neurons were incubated with HBSS containing 20 mM Hepes, […] fluo-4 acetoxymethyl (AM) ester (Thermo Fisher Scientific, Waltham, MA USA) and 0.02% pluronic acid for 30 min at 37° C. followed by an additional incubation for 30 min at room temperature. The medium was then discarded and replaced by HBSS. […] The effects of TRP channel agonists and antagonists on amitriptyline-induced calcium ion mobilization were then assessed as follows: neurons were incubated with either an antagonist for TRPV1 (10 μM AMG 9810, Sigma Aldrich) or an antagonist for TRPA1 (HCO30031; […] Sigma Aldrich). Neurons were imaged using an inverted microscope (Zeiss) and a 10×0.5 NA objective. […] Baseline fluorescence was determined for 0 to 10 seconds, and then fluorescence was measured from the 10th to the 65th second after the neurons were incubated with the drugs or controls. […] Variations in fluorescence intensity measured in each neuron were identified using Image J2 software.

TRPA1 = biological target: T2, TRPA1 (Mus musculus, UniProt Q8BLA8); assay: Calcium mobilization in DRG neurons with TRPA1 antagonist or agonist; assay type: cell-based
T2 construct: calcium ion mobilization was investigated in primary cultures of mouse DRG neurons; endogenous in cells; host or cells: primary mouse DRG neurons
Description: as §1

Nav1.9 = biological target: T3, Nav1.9 (Mus musculus, UniProt Q9R053); assay: Whole-cell patch-clamp of sodium currents in Nav1.8-/- DRG neurons; assay type: cell-based; conditions: holding potential −100 mV, cumulative 1 μM-1 mM; read-out: IC50, block of Nav1.9 current
T3 construct: the Nav1.9 current was recorded in Nav1.8−/− DRG neurons; endogenous in cells; host or cells: primary DRG neurons from Nav1.8-/- mice (C57Bl/6J background)
Description: (§2) Cultures of DRG were prepared from male mice anesthetized with isoflurane (4%, Piramal Critical Care) and sacrificed by severing of the carotid arteries. Cultures of dissociated DRG neurons were established from thoracolumbar DRG.
(§3) DRG for whole-cell patch-clamp recordings were incubated in Hanks balance salt solution (Invitrogen, France) containing 2 mg/ml of collagenase IA (Sigma, France) for approximately 45 minutes at 37° C. DRG were washed at least 10 times and then triturated with a fired polished glass Pasteur pipette. […]
(§4) Patch clamp recordings were made using borosilicate electrodes (Harvard Apparatus, Holliston, Massachusetts, USA) with a resistance of 2-3 MΩ when filled with an intracellular solution consisting of (in mM): 130 CsCl, 10 Hepes, 8 NaCl, 0.4 NaGTP, 4 MgATP, 1 MgCl2, 1 CaCl2 and 10 EGTA (adjusted to pH 7.3 with CsOH, ˜300 mOsm/L). […] Sodium currents were recorded individually. […] The Nav1.8 current was recorded in Nav1.9−/− DRG neurons, whereas the Nav1.9 current was recorded in Nav1.8−/− DRG neurons. […] Fast activating/inactivating TTX-sensitive Na+ currents (Nav1.1 and Nav1.6) in putative non-nociceptors were recorded in wild-type DRG neurons that had large cell membrane capacitance (Cm>60 pF) and lacked any TTX-resistant Na+ current components. […]

Aδ fibers = assay: Ex vivo single unit recordings, skin-saphenous nerve preparation; assay type: cell-based; conditions: Mus musculus, 10 min
Description: (§5) Adult male mice were anesthetized with isoflurane (4%) and sacrificed by severing of the carotid arteries. Skin-saphenous nerve preparations and single-fiber recordings were carried out. The saphenous nerve and the skin of the hind limb were carefully dissected and placed in a custom-designed organ chamber containing warm oxygenated synthetic interstitial fluid (SIF). […] The saphenous nerve was placed in an adjacent recording chamber filled with mineral oil, gently teased, and groups of nerve fibers were placed on a gold recording electrode in order to isolate single-unit activity. […] Cambridge Electronic Design Limited, UK). Spikes were discriminated off-line using the Spike2 software (Cambridge Electronic Design Limited, UK) and analyzed individually to avoid false positives. The mechanically evoked activity of single saphenous nerve fibers was first obtained in response to von Frey hair stimulations (Friedrich-Alexander University, Erlangen, Germany). Once a receptive field had been characterized, a patch of skin was isolated from the surrounding bath using a plastic minichamber (inner diameter: 0.8 cm) continuously superfused with buffer at 31° C. […] Conduction velocity was determined by electrically stimulating (Tungsten microelectrode: 10 mm ext/60 mm PI; FHC, USA) identified receptive fields with square wave pulses (0.1-0.5 ms, 7-15 V). […]

Nav1.8 = biological target: T4, Nav1.8 (Mus musculus, UniProt Q6QIY3); assay: Whole-cell patch-clamp of sodium currents in Nav1.9-/- DRG neurons; assay type: cell-based; conditions: holding potential −100 mV, cumulative 1 μM-1 mM; read-out: IC50, block of Nav1.8 current
T4 construct: The Nav1.8 current was recorded in Nav1.9−/− DRG neurons; endogenous in cells; host or cells: primary DRG neurons from Nav1.9-/- mice (C57Bl/6J background)

mouse DRG neurons = assay: Calcium mobilization in DRG neurons, fluo-4 calcium imaging; assay type: cell-based
Description: For calcium mobilization measurements, 10 DRG cultures (two mice per culture) were washed with Hanks Balanced Salt Solution (HBSS, Thermo Fisher Scientific, Massachusetts, USA), and incubated in HBSS containing 1 μg/ml papain (Sigma Aldrich, Missouri, USA) and L-cysteine (pH 7.4, Sigma Aldrich) for 10 minutes at 37° C. […] Neurons were then mechanically dissociated. […] DRG neurons were incubated with HBSS containing 20 mM Hepes, […] fluo-4 acetoxymethyl (AM) ester (Thermo Fisher Scientific, Waltham, MA USA) and 0.02% pluronic acid for 30 min at 37° C. followed by an additional incubation for 30 min at room temperature. The medium was then discarded and replaced by HBSS. […] The effects of TRP channel agonists and antagonists on amitriptyline-induced calcium ion mobilization were then assessed as follows: neurons were incubated with either an antagonist for TRPV1 (10 μM AMG 9810, Sigma Aldrich) or an antagonist for TRPA1 (HCO30031; […] Sigma Aldrich). Neurons were imaged using an inverted microscope (Zeiss) and a 10×0.5 NA objective. Images were acquired using a CCD camera (Zeiss) and Zen software (Zeiss). Acquisition parameters were kept constant during each experiment. Kinetic analysis was performed using 85 recordings (one per second). Baseline fluorescence was determined for 0 to 10 seconds, and then fluorescence was measured from the 10th to the 65th second after the neurons were incubated with the drugs or controls. At 65 seconds, 50 mM KCl was added to the cells in order to allow discrimination between neurons and glial cells. Variations in fluorescence intensity measured in each neuron were identified using Image J2 software.

hNav1.7 = biological target: T5, hNav1.7 (Homo sapiens, UniProt Q15858); assay: Whole-cell patch-clamp of sodium currents in hNav1.7-transfected HEK293T cells; assay type: cell-based; conditions: holding potential −80 mV, cumulative 1 μM-1 mM; read-out: IC50, block of Nav1.7 current
T5 construct: expressed in transfected cells; host or cells: HEK293T
Description: Human embryonic kidney 293T (HEK293T) cells were grown in DMEM containing 4.5 mg/ml glucose, 10% FBS, 50 units/ml penicillin and 50 μg/ml streptomycin. Cells were plated onto 12-mm round glass poly-D-lysine-coated coverslips placed in 24-well plates and transfected using lipofectamine 2000 (Invitrogen) according to the manufacturer's instructions. hNav1.7 and GFP plasmids were co-transfected at a concentration of 600 and 100 ng/ml, respectively. Experiments were conducted on cells 24-48 hours post-transfection.
as §4

Aβ fibers = assay: Ex vivo single unit recordings, skin-saphenous nerve preparation; assay type: cell-based, mouse
Description: (§6) Adult male mice were anesthetized with isoflurane (4%) and sacrificed by severing of the carotid arteries. Skin-saphenous nerve preparations and single-fiber recordings were carried out. The saphenous nerve and the skin of the hind limb were carefully dissected and placed in a custom-designed organ chamber containing warm oxygenated synthetic interstitial fluid (SIF). […] The saphenous nerve was placed in an adjacent recording chamber filled with mineral oil, gently teased, and groups of nerve fibers were placed on a gold recording electrode in order to isolate single-unit activity. […] Cambridge Electronic Design Limited, UK). Spikes were discriminated off-line using the Spike2 software (Cambridge Electronic Design Limited, UK) and analyzed individually to avoid false positives. The mechanically evoked activity of single saphenous nerve fibers was first obtained in response to von Frey hair stimulations (Friedrich-Alexander University, Erlangen, Germany). Once a receptive field had been characterized, a patch of skin was isolated from the surrounding bath using a plastic minichamber (inner diameter: 0.8 cm) continuously superfused with buffer at 31° C. The receptive field was then stimulated using von Frey mechanical probes mounted on the arm of a computer-controlled piezoelectric […]® controller; PI, Germany). Conduction velocity was determined by electrically stimulating (Tungsten microelectrode: 10 mm ext/60 mm PI; FHC, USA) identified receptive fields with square wave pulses (0.1-0.5 ms, 7-15 V). Axons were considered to be A-type when the conduction velocity was over 4 m/s. Fibers with a conduction velocity below 1 m/s were classified as C fibers.

C fibers = assay: as above; assay type: cell-based, mouse
Description: as §6

[1] = tested on: TTX-S Nav channels (Nav1.1 and Nav1.6); assay: Whole-cell patch-clamp of TTX-sensitive sodium currents in wild-type DRG neurons; assay type: cell-based, mouse; conditions: read-out: IC50, block of TTX-S Nav currents; holding potential −80 mV, touch mechanoreceptors
Description: as §2, §3, §4

C, Aδ and Aβ fibers = assay: Ex vivo single unit recordings, skin-saphenous nerve preparation, all fiber types; assay type: cell-based, mouse
Description: as §5

[2] = Ex vivo study of percutaneous amitriptyline absorption, Frantz cell; assay type: in vitro ADME, human
neuropathic pain = conditions: topical, maximum dose used 5%; cited from earlier work
[3] = tested on: Nav channels in sensory neurons; assay: Whole-cell patch-clamp of sodium currents, all Nav channels tested; assay type: cell-based, mouse; conditions: 100 μM
Source text: Patch clamp recordings were made using borosilicate electrodes (Harvard Apparatus, Holliston, Massachusetts, USA) with a resistance of 2-3 MΩ when filled with an intracellular solution consisting of (in mM): 130 CsCl, 10 Hepes, 8 NaCl, 0.4 NaGTP, 4 MgATP, 1 MgCl2, 1 CaCl2 and 10 EGTA (adjusted to pH 7.3 with CsOH, ˜300 mOsm/L). […] Voltage-gated sodium ion currents were leak-subtracted using a P/6 protocol and voltage errors were minimized using 75-80% series resistance compensation. Cultured cells were perfused with the bath solution at flow rate of 5 mL/min. Recordings were made at room temperature (20-24° C.) using an Axopatch 200B amplifier (Axon Instruments, Boston, Massachusetts, USA), filtered at 1-2 kHz, and digitally sampled at 5-20 kHz. Sodium currents were recorded individually. […]. The Nav1.8 current was recorded in Nav1.9−/− DRG neurons, whereas the Nav1.9 current was recorded in Nav1.8−/− DRG neurons. Nav1.8−/− and Nav1.9−/− mice were generated from a C57B1/6J background. Fast activating/inactivating TTX-sensitive Na+ currents (Nav1.1 and Nav1.6) in putative non-nociceptors were recorded in wild-type DRG neurons that had large cell membrane capacitance (Cm>60 pF) and lacked any TTX-resistant Na+ current components. Nav1.7 recordings were made using the transfected HEK cells.

[4] = in vivo; cited from earlier work
[5] = Mus musculus, 10 min, skin superfusion 10 min, 10-100 μM, read-out: IC50, inhibition of mechanically induced firing
[6] = Mus musculus, 10 min, 100 μM, 10 min application to the skin preparation, read-out: Mean inhibition of evoked firing

T2 sequence (Q8BLA8 whole entry): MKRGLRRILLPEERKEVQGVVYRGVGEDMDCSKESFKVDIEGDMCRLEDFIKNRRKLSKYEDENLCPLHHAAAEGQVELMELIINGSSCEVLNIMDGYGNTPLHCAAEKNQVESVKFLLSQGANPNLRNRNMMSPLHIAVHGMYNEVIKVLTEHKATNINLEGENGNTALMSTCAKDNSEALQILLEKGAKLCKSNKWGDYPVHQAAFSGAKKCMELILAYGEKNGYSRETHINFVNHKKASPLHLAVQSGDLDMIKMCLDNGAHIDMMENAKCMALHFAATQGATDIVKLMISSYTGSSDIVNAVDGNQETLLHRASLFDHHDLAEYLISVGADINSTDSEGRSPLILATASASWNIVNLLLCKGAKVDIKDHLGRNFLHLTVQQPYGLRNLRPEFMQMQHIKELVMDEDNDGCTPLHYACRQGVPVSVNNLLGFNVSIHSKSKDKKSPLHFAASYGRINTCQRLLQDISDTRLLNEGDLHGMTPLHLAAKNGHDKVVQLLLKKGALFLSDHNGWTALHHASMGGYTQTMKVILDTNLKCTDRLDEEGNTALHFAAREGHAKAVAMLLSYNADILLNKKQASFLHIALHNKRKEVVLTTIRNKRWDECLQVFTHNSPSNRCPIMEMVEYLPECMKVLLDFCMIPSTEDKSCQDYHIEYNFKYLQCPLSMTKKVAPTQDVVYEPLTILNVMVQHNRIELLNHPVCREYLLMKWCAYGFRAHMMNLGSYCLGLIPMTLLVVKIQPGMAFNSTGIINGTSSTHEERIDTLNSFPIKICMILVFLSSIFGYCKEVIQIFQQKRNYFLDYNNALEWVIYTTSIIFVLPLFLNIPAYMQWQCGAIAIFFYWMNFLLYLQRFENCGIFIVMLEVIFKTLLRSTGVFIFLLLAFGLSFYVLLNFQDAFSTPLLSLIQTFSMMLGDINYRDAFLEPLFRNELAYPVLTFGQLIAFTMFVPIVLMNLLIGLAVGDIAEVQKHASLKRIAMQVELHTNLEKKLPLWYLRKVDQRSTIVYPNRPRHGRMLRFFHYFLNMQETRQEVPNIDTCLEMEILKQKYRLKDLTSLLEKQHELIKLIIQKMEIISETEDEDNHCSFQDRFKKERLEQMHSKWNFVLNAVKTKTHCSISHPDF
T1 sequence (Q704Y3 whole entry): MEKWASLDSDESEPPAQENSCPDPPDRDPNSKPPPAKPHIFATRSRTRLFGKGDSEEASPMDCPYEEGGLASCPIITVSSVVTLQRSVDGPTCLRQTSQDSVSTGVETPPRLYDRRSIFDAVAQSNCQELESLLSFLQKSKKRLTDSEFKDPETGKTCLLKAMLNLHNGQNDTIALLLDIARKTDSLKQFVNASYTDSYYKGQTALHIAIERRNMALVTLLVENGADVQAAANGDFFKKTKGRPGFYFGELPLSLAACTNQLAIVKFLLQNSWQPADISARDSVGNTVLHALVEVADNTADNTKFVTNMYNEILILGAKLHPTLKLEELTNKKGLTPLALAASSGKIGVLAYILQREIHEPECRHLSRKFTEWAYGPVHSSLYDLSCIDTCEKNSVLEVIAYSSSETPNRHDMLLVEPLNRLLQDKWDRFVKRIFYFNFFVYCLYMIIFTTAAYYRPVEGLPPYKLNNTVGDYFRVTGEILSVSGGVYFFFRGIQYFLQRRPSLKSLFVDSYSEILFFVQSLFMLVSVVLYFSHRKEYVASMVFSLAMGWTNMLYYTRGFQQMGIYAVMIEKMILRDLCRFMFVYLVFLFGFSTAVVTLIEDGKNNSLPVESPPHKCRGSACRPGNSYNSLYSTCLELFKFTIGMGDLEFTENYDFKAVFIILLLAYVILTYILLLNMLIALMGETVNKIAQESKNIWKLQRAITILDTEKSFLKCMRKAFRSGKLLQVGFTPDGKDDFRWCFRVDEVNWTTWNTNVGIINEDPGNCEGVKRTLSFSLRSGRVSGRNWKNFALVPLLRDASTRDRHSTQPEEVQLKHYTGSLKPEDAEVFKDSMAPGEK
T4 sequence (Q6QIY3 whole entry): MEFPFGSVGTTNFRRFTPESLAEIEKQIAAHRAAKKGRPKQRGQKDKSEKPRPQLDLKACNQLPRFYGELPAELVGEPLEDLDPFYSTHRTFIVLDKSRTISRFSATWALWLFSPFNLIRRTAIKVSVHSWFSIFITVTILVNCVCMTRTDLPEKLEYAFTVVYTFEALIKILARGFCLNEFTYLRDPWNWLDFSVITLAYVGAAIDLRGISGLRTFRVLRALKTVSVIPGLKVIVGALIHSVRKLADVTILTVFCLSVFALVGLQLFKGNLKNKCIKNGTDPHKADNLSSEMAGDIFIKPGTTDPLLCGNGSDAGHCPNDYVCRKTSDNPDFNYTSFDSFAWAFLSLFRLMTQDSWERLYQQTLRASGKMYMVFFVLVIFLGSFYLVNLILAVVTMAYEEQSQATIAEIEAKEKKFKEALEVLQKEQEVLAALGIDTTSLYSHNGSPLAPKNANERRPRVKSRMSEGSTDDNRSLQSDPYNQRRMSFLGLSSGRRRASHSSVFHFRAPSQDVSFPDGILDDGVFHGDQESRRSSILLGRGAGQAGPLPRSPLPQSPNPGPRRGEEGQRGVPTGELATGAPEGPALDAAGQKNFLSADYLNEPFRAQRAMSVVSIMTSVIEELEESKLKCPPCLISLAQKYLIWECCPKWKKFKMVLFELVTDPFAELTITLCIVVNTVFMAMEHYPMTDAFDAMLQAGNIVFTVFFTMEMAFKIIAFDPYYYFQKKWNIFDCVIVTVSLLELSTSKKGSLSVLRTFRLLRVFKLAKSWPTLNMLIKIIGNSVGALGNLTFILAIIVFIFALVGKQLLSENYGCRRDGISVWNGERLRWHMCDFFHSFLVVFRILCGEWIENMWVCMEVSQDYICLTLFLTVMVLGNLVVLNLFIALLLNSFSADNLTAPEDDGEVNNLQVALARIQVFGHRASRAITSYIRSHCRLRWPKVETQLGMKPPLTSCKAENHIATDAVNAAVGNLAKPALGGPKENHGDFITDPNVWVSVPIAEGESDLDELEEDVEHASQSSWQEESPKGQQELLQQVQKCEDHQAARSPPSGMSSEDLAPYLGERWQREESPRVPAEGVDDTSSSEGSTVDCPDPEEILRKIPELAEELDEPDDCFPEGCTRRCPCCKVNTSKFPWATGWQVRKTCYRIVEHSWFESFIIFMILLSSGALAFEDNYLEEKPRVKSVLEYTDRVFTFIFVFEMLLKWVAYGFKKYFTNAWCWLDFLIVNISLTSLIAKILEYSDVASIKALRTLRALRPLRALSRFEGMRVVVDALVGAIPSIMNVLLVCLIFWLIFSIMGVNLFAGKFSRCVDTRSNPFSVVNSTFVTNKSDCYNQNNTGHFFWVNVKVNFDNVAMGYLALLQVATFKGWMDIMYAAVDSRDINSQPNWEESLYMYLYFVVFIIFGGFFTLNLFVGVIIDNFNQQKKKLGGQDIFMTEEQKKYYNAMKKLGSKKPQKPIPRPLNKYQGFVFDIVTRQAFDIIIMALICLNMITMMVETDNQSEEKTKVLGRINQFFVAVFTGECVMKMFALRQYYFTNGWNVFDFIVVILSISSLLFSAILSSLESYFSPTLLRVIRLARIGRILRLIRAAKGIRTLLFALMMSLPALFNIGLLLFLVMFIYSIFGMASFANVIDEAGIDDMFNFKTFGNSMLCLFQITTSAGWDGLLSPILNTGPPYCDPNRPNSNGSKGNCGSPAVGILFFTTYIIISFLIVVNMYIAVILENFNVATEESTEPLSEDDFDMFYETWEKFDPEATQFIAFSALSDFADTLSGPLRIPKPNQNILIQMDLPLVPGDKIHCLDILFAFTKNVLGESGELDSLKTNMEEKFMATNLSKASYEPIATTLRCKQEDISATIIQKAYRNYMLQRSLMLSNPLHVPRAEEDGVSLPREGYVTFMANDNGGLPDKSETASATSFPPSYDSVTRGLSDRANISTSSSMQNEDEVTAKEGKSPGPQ

CC(C)(C)c1ccc(/C=C/C(=O)Nc2ccc3c(c2)OCCO3)cc1 [AMG9810]
effect of antagonist pretreatment on amitriptyline-induced calcium ion mobilization (TRPV1; 5-min pretreatment, 10 μM TRPV1 antagonist): had no effect

CC(C)c1ccc(NC(=O)Cn2cnc3c2c(=O)n(C)c(=O)n3C)cc1 [HC30301]
effect of antagonist pretreatment on amitriptyline-induced calcium ion mobilization (TRPA1; 5-min pretreatment, excess of TRPA1 antagonist): led to inhibition of amitriptyline-induced calcium ion mobilization

CN(C)CCC=C1c2ccccc2CCc2ccccc21 [amitriptyline, Amitriptyline]
IC50 (Nav1.9): 15.6 ± 0.5 µM | IC50 (Aδ fibers; skin superfusion 10 min, 10-100 μM, read-out: IC50, inhibition of mechanically induced firing): ~16 µM | inhibition at 100 µM (Aδ fibers; 100 μM, 10 min application to the skin preparation, read-out: Mean inhibition of evoked firing): 87.5% | IC50 (Nav1.8): 4.25 ± 0.4 µM | time to increase in intracellular calcium ions (mouse DRG neurons; 0.1 mM): ≤ 10 s | time to plateau of intracellular calcium ion amplitude curve (mouse DRG neurons; 0.1 mM): around 20 seconds | IC50 (mouse DRG neurons; Mus musculus, DRG neuron, 0.01 mM-1 mM, read-out: IC50, percentage of DRG neurons displaying intracellular calcium mobilization): 50 µM | IC50 (hNav1.7): 4.25 ± 0.4 µM | discharge of a low-threshold Aβ mechanoreceptor, representative recording (Aβ fibers; 1 mN stimulus, 100 μM, 5 and 10 min superfusion): inhibition was not complete | reversal of inhibition after washout, Aβ mechanoreceptor (Aβ fibers; 30 min washout after 100 μM): partially reversed | IC50 (Aβ fibers; [5]): ~26 µM | inhibition at 100 µM (Aβ fibers; [6]): 82.5% | firing in a C-type mechanonociceptor fiber, representative recording (C fibers; 11.4 mN stimulation, 100 μM, 10 min superfusion): Full inhibition of firing | IC50 (C fibers; [5]): ~15 µM | inhibition at 100 µM (C fibers; [6]): 95.6% | IC50 [1]: 62 ± 0.5 µM | time of washout to reversal of inhibition (C, Aδ and Aβ fibers): 30 to 35 min | amitriptyline bioavailability ([2]; 10 mg of 10% cream per cell, 16 hours): 22.5 µg | amitriptyline present in the epidermis ([2]; compared with dermis, 10% cream, 16 hours): 26% | amitriptyline present in the dermis ([2]; compared with epidermis, 10% cream, 16 hours): Approximately 74% | passage into the bloodstream ([2]; relative to the amount of amitriptyline present in the composition): less than 0.1% | potentiation of DRG neuron activation induced by TRPV1 agonist (TRPV1; 0.01 mM, 5-min incubation, 62 nM capsaicin): did not potentiate | efficacy in the treatment of neuropathic pain (neuropathic pain): not efficacious | potentiation of DRG neuron activation induced by TRPA1 agonist (TRPA1; 0.01 mM, 5-min incubation, 50 μM AITC): did not potentiate | time to reversal of inhibition [3]: ≤ 20 ± 2 min | plasma half-life [4]: 9 to 36 h
